From patent publication EP3723745B1, “PHENOXY ACIDS FOR THE TREATMENT OF NEUROMUSCULAR DISORDERS” (NMD Pharma A/S, priority 2017, dated 2019)

Legend:
[1] = test system: soleus muscles; assay: Measurement of force in an in vitro model: isolated rat nerve-muscle preparation with tubocurarine; details: Rattus norvegicus, 40 min; percentage of initial force restored after 40 mins with 50 µM test compound; tubocurarine (115 nM) for 90 mins; read-out: Point increase
Method: Recovery of force is quantified as the percentage of the force prior to tubocurarine that is recovered by the compound.
The current invention relates to compounds that inhibit CIC-1 ion channels and increase muscle excitability and thereby improve muscle function in clinical conditions where muscle activation is failing. Such conditions result in loss of contractile function of skeletal muscle, weakness and excessive fatigue. In this series of experiments the compounds were tested for their ability to restore contractile function of isolated rat muscle when the neuromuscular transmission had been compromised akin to neuromuscular disorders.
Experimentally, soleus muscles from 4-5 wk old rats were isolated with the motor nerve remaining attached. The nerve-muscle preparations were mounted in experimental setups that enabled electrical stimulation of the motor nerve. Stimulation of the motor nerve led to activation of the muscle fibres and ensuing force production that was recorded.
After mounting the nerve-muscle preparation in the experimental setup, the contractile function of the muscle was initially assessed under the control conditions (Figure 2A). […] The experimental condition mimics the failing neuromuscular transmission in a range of neuromuscular disorders. After addition of tubocurarine the contractile force declined over the next 90 mins to 10-50 % of the control force. 50 µM of the test compound was then added and the contractile force recovered despite the continued presence of tubocurarine. To quantify the ability of the compound to restore force the percentage of the initial force that was restored was determined after 40 mins of compound exposure (Figure 2B) and the point increase is reported in Table 3. Table 3: Percentage increase of initial force that was restored using compounds of the invention

[2] = molecular target: T1, CIC-1 channels (Rattus norvegicus, UniProt P35524); assay: Electrophysiological measurement of compound inhibition of CIC-1 in rat muscle (Gm, three micro-electrodes technique); format: cell-based; details: reduction of Gm in fibres of whole rat soleus muscles, approx. 30°C; n = number of experiments
T1 construct: from tissue; host or cells: intact soleus muscle of 12-14-week old Wistar rats
T1 sequence (P35524 1-994): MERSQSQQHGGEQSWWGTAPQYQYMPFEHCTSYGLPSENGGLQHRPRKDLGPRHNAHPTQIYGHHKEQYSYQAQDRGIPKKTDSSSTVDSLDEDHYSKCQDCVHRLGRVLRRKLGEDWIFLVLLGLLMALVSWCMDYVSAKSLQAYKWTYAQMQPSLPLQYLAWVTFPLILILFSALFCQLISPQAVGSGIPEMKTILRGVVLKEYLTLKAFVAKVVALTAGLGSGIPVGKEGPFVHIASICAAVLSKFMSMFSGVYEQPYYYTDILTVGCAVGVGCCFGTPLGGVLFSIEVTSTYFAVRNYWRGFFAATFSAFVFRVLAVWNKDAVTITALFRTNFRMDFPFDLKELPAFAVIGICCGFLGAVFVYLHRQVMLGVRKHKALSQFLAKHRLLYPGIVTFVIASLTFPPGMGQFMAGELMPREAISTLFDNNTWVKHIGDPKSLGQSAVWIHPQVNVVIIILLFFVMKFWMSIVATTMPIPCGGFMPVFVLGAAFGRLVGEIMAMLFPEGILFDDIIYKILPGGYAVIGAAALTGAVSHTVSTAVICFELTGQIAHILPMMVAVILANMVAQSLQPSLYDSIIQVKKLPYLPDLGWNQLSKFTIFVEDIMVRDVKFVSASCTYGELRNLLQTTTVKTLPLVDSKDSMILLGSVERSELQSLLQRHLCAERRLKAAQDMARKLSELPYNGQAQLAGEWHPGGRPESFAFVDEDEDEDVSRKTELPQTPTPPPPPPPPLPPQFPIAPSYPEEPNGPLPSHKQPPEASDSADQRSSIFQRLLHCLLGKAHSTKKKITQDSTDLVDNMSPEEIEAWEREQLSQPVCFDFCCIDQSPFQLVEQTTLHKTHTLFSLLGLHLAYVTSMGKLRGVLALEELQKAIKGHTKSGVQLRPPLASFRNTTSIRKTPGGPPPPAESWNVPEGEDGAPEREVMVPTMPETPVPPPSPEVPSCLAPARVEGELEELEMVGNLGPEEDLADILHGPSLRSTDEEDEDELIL
Text: Table 2: Inhibition of CIC-1 ion channel using compounds of the invention

[3] = test system: female Lewis rats; assay: Measurement of in situ muscle contractile characteristics (isometric hindlimb force, cisatracurium block); format: in vivo, rat; details: for average increase in twitch peaks: 12 Hz; for average increase in twitch peaks / average increase in tetanic force: cisatracurium infusion; for average increase in tetanic force: 80 Hz; for restore force to muscles in vivo: muscles partially inhibited by a neuromuscular blocker, summary in words
Method: Isometric hindlimb force was measured in 12-week old female Lewis rats in the presence and absence of compound.
Rats were placed under anesthesia with isoflurane (2-4%), intubated and subsequently connected to a micro ventilator (Microvent 1, Hallowell EMC, US). Two stimulation electrodes were inserted through the skin to stimulate the sciatic nerve. A small incision was made proximal to the ankle, to expose the Achilles tendon, which was tied by cotton string, and connected to a force transducer (Fort250, World Precision Instruments) with adjustable position (Vernier control). The Achilles tendon was then cut distal to the attached cotton string. The rat was placed on a heated pad, and to prevent movement artefacts from contraction of the ankle dorsiflexors, the foot was fixated by tape on a footplate.
Muscle contractile properties were assessed by applying an electrical current (under supramaximal voltage conditions) to the nerve and recording the force generated by the muscle. The muscle was stretched until maximal force was obtained, when assessed by 2 Hz stimulation. Isometric force was measured every 30 seconds at 12 Hz (Twitch), 10 pulses, and at every 5 minutes at 80 Hz (Tetanic) for 1 second (80 pulses). This stimulation pattern was employed throughout the experiment, expect in few cases where 80 Hz stimulation was replaced by 12 Hz (10 pulses). […] When the level of neuromuscular inhibition was stable, the test article was injected i.v. at the chosen concentration. The effect of test article was assessed on its ability to increase force generated from the stimulation pattern applied. The effect was assessed in the ability to increase force per se (tetanic, 80 Hz, stimulation), and the ratio between individual twitch peaks (12 Hz stimulation). The effect was monitored for at least 1 hour after injection of test article. In addition, the time from injection of test article to maximal effect on force (both twitch and tetanic) was noted and the time for the effect to disappear (return to baseline), if possible. When appropriate the infusion of neuromuscular blocking agent was ceased, with the stimulation pattern continued, and the return of force to control levels was monitored. Animals were sacrificed by cervical dislocation while still fully sedated.

[4] = molecular target: T2, human CIC-1 channels (Homo sapiens, UniProt P35523); assay: Automated patch-clamp on human CIC-1 expressed in CHO cells; format: cell-based; details: difference in half activation voltage, compound added intracellularly vs control cell patches; positive shift = CIC-1 inhibition
T2 construct: host or cells: CHO cells constitutively expressing human ClC-1
Method: The investigatory goal of these experiments was to evaluate how compounds affect the open probability and current amplitude of human CIC-1 channels expressed in CHO cells. Experiments were performed using an automated patch clamp system that allowed high throughput testing of whole cell patches together with both intracellular and extracellular addition of compound.
Automated whole cell patch clamp experiments were performed with the Qpatch 16 system (Sophion Bioscience, Ballerup, Denmark) at room temperature. Data acquisition and analysis were performed in the Qassay software (ver. 5.6, Odense).
To evoke CIC-1 currents in whole cell patches, the membrane potential was initially stepped from a holding potential of -30 mV to +60 mV for 100 ms and then to various test voltages (sweeps) ranging from +120 mV to -140 mV in steps of 20 mV for 300 ms. To obtain tail currents, the membrane potential was stepped to -100 mV after each test voltage for 300 ms and then relaxed to -30 mV for 2 sec between sweeps (Figure 3). I/V relationships for whole cell instant and steady state current amplitudes were obtained by plotting average current densities at the beginning and at the end of the 300 ms step against the membrane potential (Figure 4).
In order to determine the relative overall open probability (P0), the instantaneous tail currents were normalized to the maximal tail current obtained following the most positive voltage step and plotted against the test voltage. Plots of normalized tail currents from each whole cell patch were then fitted to a Boltzmann function allowing determination of half activation voltages (V1/2, Figure 5).
For automated patch clamp experiments extracellular solutions contained: 2 mM CaCl2, 1 mM MgCl2, 10 mM HEPES, 4 mM KCI, 145 mM NaCl, 10 mM Glucose, pH adjusted to 7.4 with NaOH (2 M). Osmolality adjusted to -320 using sucrose.
Intracellular solutions contained: 80 mM CsF, 60 mM CsCI, 5/1 mM KOH/EGTA, 10 mM HEPES, 10 mM NaCl, pH adjusted to 7.2 with NaOH (2 M). Osmolality adjusted to -320 mOsm using sucrose.
Cells used in patch clamp experiments were Chinese hamster ovary cells (CHO) constitutively expressing human CIC-1 channels. The amino acid sequence encoded by the cDNA used to create this cell line was identical to the translated sequence for GenBank accession number NM_000083.2. Cells were produced by Charles River (Catalogue CT6175, Cleveland OH, USA) in a cryopreserved format. Experiments were performed on the cells directly after thawing (3 × 10^6 cells used in each experiment).
To evaluate the compound effect on CIC-1, when applied directly to the intracellular side of the cell membrane, the half activation voltage, V1/2, was determined from whole cell patches with compound added to the intracellular solution and then compared to V1/2 determined from control cell patches with only vehicle added to the intracellular solution. Additionally, the effect of extracellular added compound was evaluated by determine V1/2 and steady state current amplitudes before and after exchanging the extracellular solution to contain compound.
The difference in half activation voltage of CIC-1 channels, ΔV1/2, was determined as the difference between the cell patches treated intracellularly with compound and control cells patches and is reported in Table 4 below. A positive shift in ΔV1/2 is reflecting CIC-1 channel inhibition by the tested compound. P-values of <0.05 is considered significant. […]

T2 sequence (P35523 whole entry): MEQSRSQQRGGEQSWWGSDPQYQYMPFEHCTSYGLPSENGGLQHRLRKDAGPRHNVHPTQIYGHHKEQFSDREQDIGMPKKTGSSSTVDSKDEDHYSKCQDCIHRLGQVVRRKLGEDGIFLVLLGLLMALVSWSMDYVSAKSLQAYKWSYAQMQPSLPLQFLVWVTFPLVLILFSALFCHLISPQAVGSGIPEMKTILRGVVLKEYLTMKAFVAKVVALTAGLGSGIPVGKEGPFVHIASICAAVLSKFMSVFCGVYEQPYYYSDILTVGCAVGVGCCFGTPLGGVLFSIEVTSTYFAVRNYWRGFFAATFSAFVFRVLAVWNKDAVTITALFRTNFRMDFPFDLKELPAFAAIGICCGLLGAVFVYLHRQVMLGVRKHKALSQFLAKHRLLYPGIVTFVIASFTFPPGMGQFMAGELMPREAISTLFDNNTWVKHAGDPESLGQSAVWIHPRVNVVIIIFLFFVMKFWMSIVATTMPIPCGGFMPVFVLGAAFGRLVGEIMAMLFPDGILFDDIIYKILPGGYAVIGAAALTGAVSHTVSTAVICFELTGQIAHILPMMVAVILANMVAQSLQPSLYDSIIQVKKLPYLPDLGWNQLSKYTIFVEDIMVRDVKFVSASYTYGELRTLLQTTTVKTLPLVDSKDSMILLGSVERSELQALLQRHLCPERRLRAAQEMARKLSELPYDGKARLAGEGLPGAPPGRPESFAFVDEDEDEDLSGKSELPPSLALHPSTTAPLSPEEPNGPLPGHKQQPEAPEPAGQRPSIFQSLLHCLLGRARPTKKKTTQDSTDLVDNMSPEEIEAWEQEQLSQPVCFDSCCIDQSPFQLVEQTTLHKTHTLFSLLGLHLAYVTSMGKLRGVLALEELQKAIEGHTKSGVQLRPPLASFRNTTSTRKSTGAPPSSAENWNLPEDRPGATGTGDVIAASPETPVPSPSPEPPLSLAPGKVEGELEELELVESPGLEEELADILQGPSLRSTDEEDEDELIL

Compound	activation at 50 µM [1]	EC50 [2]	average increase in twitch peaks ([3]; 20 mg/kg i.v.)	average increase in tetanic force ([3]; 20 mg/kg i.v.)	restore force to muscles in vivo [3]	ΔV1/2 [4]	average increase in twitch peaks ([3]; 21 mg/kg i.v.)	average increase in tetanic force ([3]; 21 mg/kg i.v.)
C[C@H](Oc1ccc(Br)cc1F)C(=O)O [Compound A-31, (2S)-2-(4-bromo-2-fluorophenoxy)propanoi c acid]	42%	7.2 ± 2.8 µM	7.3%	29.8%	can restore force	–	–	–
O=C(O)[C@@H](Oc1ccc(Br)cc1F)C1CC1 [Compound A-89, (2S)-2-(4-bromo-2-fluorophenoxy)-2-cyclopropylacetic acid]	33%	8.7 ± 1.4 µM	–	–	–	10.3 mV	–	–
COC[C@H](Oc1ccc(Br)cc1Br)C(=O)O [Compound A-74, (2S)-2-(2,4-dibromophenoxy)-3-methoxypropanoic acid]	42%	4 ± 0.1 µM	–	–	–	10.4 mV	–	–
C[C@@H](F)[C@H](Oc1ccc(Br)cc1)C(=O)O [Compound A-94, (2R,3R)-2-(4-bromophenoxy)-3-fluorobutanoic acid]	31%	12 ± 3.2 µM	–	–	can restore force	–	11.5%	34.8%
